Reference: BindingDB's records for doi:10.1021/jm050499d (University of Zürich, 2005)

Test: Predicted binding affinity for beta secretase by linear interaction energy continuum electrostatics

COCCCNC(=O)c1cc(NC(=O)Nc2cc(C(F)(F)F)cc(C(F)(F)F)c2)ccc1N(C)C [5-[3-(3,5-Bis-trifluoromethyl-phenyl)-ureido]-2-dimethylamino-N-(3-methoxy-propyl)-benzamide]
Ki: 9.4 µM
